Measured values as given in US12605352B2, “Compositions and methods for inhibiting blood cancer cell growth” (UNIVERSITY OF NEW BRUNSWICK, priority 2019, dated 2026).

How the values were obtained:
[1] = system: OCI-LY3 human lymphoma cells; test: Cell growth inhibition (cell viability assay) on IMiD-resistant human lymphoma cells OCI-LY3; assay type: cell-based; conditions: for anti-lymphoma cell growth inhibition (in words) / inhibition at 10 µM: 10 uM; for anti-lymphoma cell growth inhibition (in words): OCI-LY3, listed in decreasing order of bioactivity; for inhibition at 1 µM / inhibition at 10 µM: Homo sapiens, OCI-LY3 cells, 48 hr treatment
Description: (§1) In certain embodiments of the present invention, the remarkable cancer cell growth inhibitory potential of caffeic acid phenpropyl ester analogues was established by treating human leukemia, myeloma and lymphoma cell lines with the analogues of Table 1 and measuring the viability of blood cancer cells by cell viability assay. The efficacy of the analogues of Table 1 in comparison to a standard chemotherapy drug was confirmed.
With reference to Table 3 and FIG. 2, FIG. 2 is a bar graph depicting cell growth inhibitory effect of caffeic acid phenpropyl ester (GL8) analogues according to certain aspects of the present disclosure at 1 uM concentration on human lymphoma cells (Cell line: OCI-LY3; 48 hr treatment).
With reference to Table 1, Table 4 and FIG. 3, FIG. 3 is a bar graph depicting cell growth inhibitory effect of caffeic acid phenpropyl ester (GL8) analogues according to certain aspects of the present disclosure at 10 uM concentration on human lymphoma cells (Cell line: OCI-LY3; 48 hr treatment).

[2] = system: KMM-1 human myeloma cells; test: Cell growth inhibition (cell viability assay) on IMiD-resistant human myeloma cells KMM-1; assay type: cell-based; conditions: for inhibition at 10 µM: Homo sapiens, KMM-1 cells, 48 hr treatment; for anti-myeloma cell growth inhibition (in words): 10 uM, KMM-1, listed in decreasing order of bioactivity
Description: as §1
With reference to Table 1, Table 2 and FIG. 1, FIG. 1 is a bar graph depicting cell growth inhibitory effect of caffeic acid phenpropyl ester (GL8) analogues at 10 uM concentration according to certain aspects of the present disclosure on human myeloma cells (Cell line: KMM-1; 48 hr treatment).

[3] = system: HL-60 human leukemia cells; test: Cell growth inhibition (cell viability assay) on human leukemia cells HL-60; assay type: cell-based; conditions: HL-60 cells, 48 hr treatment
Description: as §1
With reference to Table 5 and FIG. 4, FIG. 4 is a bar graph depicting cell growth inhibitory effect of caffeic acid phenpropyl ester (GL8) analogues at 10 uM concentration according to certain aspects of the present disclosure on human leukemia cells (Cell line: HL-60; 48 hr treatment).

[4] = system: myeloma cell lines (KMM1, MM1R, JJN3); test: PrestoBlue cell viability assay, concentration response on myeloma cell lines; assay type: cell-based, human; conditions: in comparison to IMiDs, CAPE, GL8 and J229; 48 hours
Description: Myeloma cell lines were treated for 3 or 5 days with increasing concentration of lenalidomide (FIG. 5A) and pomalidomide (FIG. 5B). KMM1 cells (FIG. 5D), MM1R cells (FIG. 5E), and JJN3 cells (FIG. 5F) were treated for 48 hours with varying concentration of CAPE, GL8, As26 and J229. The cell growth inhibition was determined by PrestoBlue cell viability assay. Data from three independent experiments is presented as mean±SD. IC50 values (FIG. 5C) representing half-maximal inhibitory concentration of compounds were determined using GraphPad prism analyses software.

[5] = system: KMM1 cells; test: Annexin V-PI flow cytometry apoptosis assay on KMM1 myeloma cells; assay type: cell-based, human; conditions: 10 uM, 72-hour treatment
Description: Induction of apoptosis in myeloma cells by various inhibitors was determined by staining exposed phosphatidylserine with Annexin V-FITC and DNA with Propidium iodide using Alexa Fluor® 488 annexin V/Dead Cell Apoptosis Kit (Invitrogen, ThermoFisher Scientific, CA) according to the manufacturer's instructions. Single-cell suspensions were analyzed on a Beckmann Coulter Gallios Flow Cytometer with Kaluza analyses software. Twenty-five thousand events were acquired for every condition. Apoptotic cells were scored as Annexin V+, PI− and Annexin V+, PI+.
Referring to FIG. 6, Apoptotic effect of veh/vehicle (DMSO), lenalidomide (len), pomalidomide (pom), CAPE, GL8, As26 and J229 (all compounds at 10 uM concentration) on KMM1 cells upon 72-hour treatment followed by Annexin V-PI flow cytometry analyses is shown. Percentage of early and late apoptotic cells are presented as mean±SD (*P≤0.05; **P≤0.01).

## O=C(/C=C/c1cccc(O)c1O)OCCCc1ccccc1 [As25, (E)-3-phenylpropyl 3-(2,3-dihydroxyphenyl)acrylate]
[1]
  anti-lymphoma cell growth inhibition (in words): superior anti-lymphoma cell growth inhibition
  inhibition at 1 µM: 69%
  inhibition at 10 µM: 84%
[2]
  inhibition at 10 µM: 15.1%
[3]
  inhibition at 10 µM: 13.6%

## O=C(/C=C/c1cc(O)ccc1O)OCCCc1ccccc1 [As26, (E)-3-phenylpropyl 3-(2,5-dihydroxyphenyl)acrylate]
[1]
  anti-lymphoma cell growth inhibition (in words): superior anti-lymphoma cell growth inhibition
  inhibition at 1 µM: 26.6%
  inhibition at 10 µM: 90.3%
[2]
  anti-myeloma cell growth inhibition (in words): superior anti-myeloma cell growth inhibition
  inhibition at 10 µM: 89.7%
[4]
  myeloma cell growth inhibitory effect (in words): superior myeloma cell growth inhibitory effect
[5]
  apoptotic effect (in words): Remarkable apoptotic effect
[3]
  inhibition at 10 µM: 54.4%

## O=C(/C=C/c1ccc(O)c(O)c1)OCCc1ccccc1 [CAPE, Caffeic acid (3,4-dihydroxycinnamic acid) phenethyl ester, reference compound]
[1]
  inhibition at 1 µM: -24.3%
  inhibition at 10 µM: 51.8%
[2]
  inhibition at 10 µM: 14.7%
[3]
  inhibition at 10 µM: -6.8%

## O=C(/C=C/c1ccc(O)c(O)c1)OCc1ccccc1 [GL7, (E)-benzyl 3-(3,4-dihydroxyphenyl)acrylate]
[1]
  inhibition at 1 µM: 10.5%
  inhibition at 10 µM: 18.9%
[2]
  inhibition at 10 µM: 15.9%
[3]
  inhibition at 10 µM: 20.5%

## O=C(/C=C/c1ccc(O)c(O)c1)OCCCc1ccccc1 [GL8, caffeic acid phenpropyl ester, reference compound]
[1]
  inhibition at 1 µM: -4.6%
  inhibition at 10 µM: 78.7%
[2]
  inhibition at 10 µM: 28.2%
[3]
  inhibition at 10 µM: 36%

## O=C(/C=C/c1ccc(O)c(O)c1)Oc1ccccc1 [GL9, (E)-phenyl 3-(3,4-dihydroxyphenyl)acrylate]
[1]
  inhibition at 1 µM: 26.3%
  inhibition at 10 µM: 44.7%
[2]
  inhibition at 10 µM: 26%
[3]
  inhibition at 10 µM: 6.8%

## COc1cc(/C=C/C(=O)OCCc2ccccc2)cc(OC)c1O [HM5, (E)-phenethyl 3-(4-hydroxy-3,5-dimethoxyphenyl)acrylate]
[1]
  inhibition at 1 µM: 3.1%
  inhibition at 10 µM: -15.4%
[2]
  inhibition at 10 µM: -8.6%
[3]
  inhibition at 10 µM: -13.3%

## COc1cc(/C=C/C(=O)OCCCc2ccccc2)cc(OC)c1O [HM7, (E)-3-phenylpropyl 3-(4-hydroxy-3,5-dimethoxyphenyl)acrylate]
[1]
  anti-lymphoma cell growth inhibition (in words): superior anti-lymphoma cell growth inhibition
  inhibition at 1 µM: -4.9%
  inhibition at 10 µM: 90%
[2]
  anti-myeloma cell growth inhibition (in words): superior anti-myeloma cell growth inhibition
  inhibition at 10 µM: 26.6%
[3]
  inhibition at 10 µM: 24.1%

## O=C(/C=C/c1ccc(O)c(O)c1)OC/C=C/c1ccccc1 [LL14, (2E)-cinnamyl 3-(3,4-dihydroxyphenyl)acrylate]
[1]
  inhibition at 1 µM: -1%
  inhibition at 10 µM: 61.5%
[2]
  inhibition at 10 µM: 16.1%
[3]
  inhibition at 10 µM: 21.6%

## O=C(/C=C/c1ccc(O)c(O)c1)OCCCCc1ccccc1 [LL23, (E)-4-phenylbutyl 3-(3,4-dihydroxyphenyl)acrylate]
[1]
  inhibition at 1 µM: -9.3%
  inhibition at 10 µM: 71.7%
[2]
  anti-myeloma cell growth inhibition (in words): superior anti-myeloma cell growth inhibition
  inhibition at 10 µM: 27.2%
[3]
  inhibition at 10 µM: 33%

## O=C(/C=C/c1ccc(O)c(O)c1)NCCCc1ccccc1 [LL28, (E)-3-(3,4-dihydroxypheny1)-N-(3-phenylpropyl)acrylamide]
[1]
  inhibition at 1 µM: -9.5%
  inhibition at 10 µM: 36%
[2]
  inhibition at 10 µM: 15.8%
[3]
  inhibition at 10 µM: 8.7%

## Nc1cccc2c1CN(C1CCC(=O)NC1=O)C2=O (stereo not shown) [Lenalidomide, lenalidomide, reference compound]
[1]
  inhibition at 10 µM: 7.5%
[2]
  inhibition at 10 µM: 7.5%
[3]
  inhibition at 10 µM: 1.6%

## Cc1ccc(CCOC(=O)/C=C/c2ccc(O)c(O)c2)cc1 [MT25, (E)-(4-methylphenethyl) 3-(3,4-dihydroxyphenyl)acrylate]
[1]
  inhibition at 1 µM: 10%
  inhibition at 10 µM: 59.8%
[2]
  inhibition at 10 µM: 21.6%
[3]
  inhibition at 10 µM: 28.7%

## O=C(/C=C/c1ccc(O)c(O)c1)OCCc1ccc(F)cc1 [MT26, (E)-(4-fluorophenethyl) 3-(3,4-dihydroxyphenyl)acrylate]
[1]
  anti-lymphoma cell growth inhibition (in words): superior anti-lymphoma cell growth inhibition
  inhibition at 1 µM: 0.7%
  inhibition at 10 µM: 79.3%
[2]
  inhibition at 10 µM: 25.9%
[3]
  inhibition at 10 µM: 32.1%

## COc1cc(/C=C/C(=O)OCCc2ccccc2)ccc1O [MT49, (E)-phenethyl 3-(4-hydroxy-3-methoxyphenyl)acrylate]
[1]
  inhibition at 1 µM: -1%
  inhibition at 10 µM: 1.2%
[2]
  inhibition at 10 µM: 6.5%
[3]
  inhibition at 10 µM: 14.4%

## COc1cc(/C=C/C(=O)OCCCc2ccccc2)ccc1O [MT50, (E)-3-phenylpropyl 3-(4-hydroxy-3-methoxyphenyl)acrylate]
[1]
  inhibition at 1 µM: -0.7%
  inhibition at 10 µM: 1.5%
[2]
  inhibition at 10 µM: 13.6%
[3]
  inhibition at 10 µM: 13.4%

## O=C(/C=C/c1ccc(O)cc1O)OCCCc1ccccc1 [MT72, (E)-3-phenylpropyl 3-(2,4-dihydroxyphenyl)acrylate]
[1]
  inhibition at 1 µM: 3.3%
  inhibition at 10 µM: -4.5%
[2]
  inhibition at 10 µM: -0.2%
[3]
  inhibition at 10 µM: -8.2%

## O=C(/C=C/c1ccc(O)c(O)c1)OCC#Cc1ccccc1 [Molecule J91, (E)-3-phenylprop-2-ynyl 3-(3,4-dihydroxyphenyl)acrylate]
[1]
  inhibition at 1 µM: 0.3%
  inhibition at 10 µM: 39.8%
[2]
  anti-myeloma cell growth inhibition (in words): superior anti-myeloma cell growth inhibition
  inhibition at 10 µM: 31.7%
[3]
  inhibition at 10 µM: 32.4%

## O=C(/C=C/c1ccc(O)c(O)c1)CCCc1ccccc1 [Molecule J205, (E)-1-(3,4-dihydroxyphenyl)-6-phenylhex-1-en-3-one]
[1]
  inhibition at 1 µM: 18.7%
  inhibition at 10 µM: 76.6%
[2]
  inhibition at 10 µM: 22.2%
[3]
  inhibition at 10 µM: 60.7%

## Oc1ccc(/C=C/COCCCc2ccccc2)cc1O [Molecule J229, 4-((E)-3-(3-phenylpropoxy)prop-1-enyl)benzene-1,2-diol]
[1]
  anti-lymphoma cell growth inhibition (in words): superior anti-lymphoma cell growth inhibition
  inhibition at 1 µM: 2.3%
  inhibition at 10 µM: 78.2%
[2]
  anti-myeloma cell growth inhibition (in words): superior anti-myeloma cell growth inhibition
  inhibition at 10 µM: 49.4%
[3]
  inhibition at 10 µM: 54.3%
